{"source": "ChEMBL document CHEMBL1201862", "about": "“PubChem BioAssay data set” (2004)", "key": {"[1]": {"molecular_target": "T1, Histone-lysine N-methyltransferase NSD2 (Homo sapiens, UniProt O96028)", "T1 sequence (O96028 whole entry)": "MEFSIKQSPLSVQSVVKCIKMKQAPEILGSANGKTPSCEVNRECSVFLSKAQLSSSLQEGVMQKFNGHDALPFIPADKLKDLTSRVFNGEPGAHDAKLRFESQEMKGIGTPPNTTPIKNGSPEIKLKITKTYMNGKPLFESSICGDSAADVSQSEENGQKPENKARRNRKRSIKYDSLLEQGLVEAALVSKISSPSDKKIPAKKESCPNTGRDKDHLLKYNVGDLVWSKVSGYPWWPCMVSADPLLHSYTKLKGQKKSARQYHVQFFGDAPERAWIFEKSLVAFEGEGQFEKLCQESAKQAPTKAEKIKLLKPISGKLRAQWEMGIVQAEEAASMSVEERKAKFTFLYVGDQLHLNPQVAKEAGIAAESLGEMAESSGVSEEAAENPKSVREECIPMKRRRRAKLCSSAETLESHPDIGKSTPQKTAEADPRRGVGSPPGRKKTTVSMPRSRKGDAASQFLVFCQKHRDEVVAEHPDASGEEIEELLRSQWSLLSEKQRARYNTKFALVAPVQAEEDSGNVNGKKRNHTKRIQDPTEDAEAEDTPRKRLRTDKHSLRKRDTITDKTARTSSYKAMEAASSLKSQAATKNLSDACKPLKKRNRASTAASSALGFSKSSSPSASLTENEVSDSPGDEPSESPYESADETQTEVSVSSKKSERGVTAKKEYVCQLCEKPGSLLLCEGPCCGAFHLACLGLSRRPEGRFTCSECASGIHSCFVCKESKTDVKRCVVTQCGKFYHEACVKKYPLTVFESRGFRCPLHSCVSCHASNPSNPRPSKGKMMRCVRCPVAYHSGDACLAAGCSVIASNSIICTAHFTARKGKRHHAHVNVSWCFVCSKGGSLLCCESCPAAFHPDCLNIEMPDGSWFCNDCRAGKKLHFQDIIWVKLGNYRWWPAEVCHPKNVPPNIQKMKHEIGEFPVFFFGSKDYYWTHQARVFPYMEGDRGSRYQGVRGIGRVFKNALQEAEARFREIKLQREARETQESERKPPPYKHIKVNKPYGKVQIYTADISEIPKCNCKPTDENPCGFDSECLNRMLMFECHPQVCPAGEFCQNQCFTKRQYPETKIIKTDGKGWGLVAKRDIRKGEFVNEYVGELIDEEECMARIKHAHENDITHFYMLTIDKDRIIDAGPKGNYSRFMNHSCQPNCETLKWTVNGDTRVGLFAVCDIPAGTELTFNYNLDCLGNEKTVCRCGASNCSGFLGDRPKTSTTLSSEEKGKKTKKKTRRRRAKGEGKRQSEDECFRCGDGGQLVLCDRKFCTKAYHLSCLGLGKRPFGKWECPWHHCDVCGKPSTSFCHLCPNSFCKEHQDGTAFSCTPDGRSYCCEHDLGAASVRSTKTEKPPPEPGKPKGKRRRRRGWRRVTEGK", "assay_type": "biochemical"}, "[2]": {"molecular_target": "Cytochrome P450 2D6 (Homo sapiens, UniProt P10635)", "sequence (P10635 whole entry)": "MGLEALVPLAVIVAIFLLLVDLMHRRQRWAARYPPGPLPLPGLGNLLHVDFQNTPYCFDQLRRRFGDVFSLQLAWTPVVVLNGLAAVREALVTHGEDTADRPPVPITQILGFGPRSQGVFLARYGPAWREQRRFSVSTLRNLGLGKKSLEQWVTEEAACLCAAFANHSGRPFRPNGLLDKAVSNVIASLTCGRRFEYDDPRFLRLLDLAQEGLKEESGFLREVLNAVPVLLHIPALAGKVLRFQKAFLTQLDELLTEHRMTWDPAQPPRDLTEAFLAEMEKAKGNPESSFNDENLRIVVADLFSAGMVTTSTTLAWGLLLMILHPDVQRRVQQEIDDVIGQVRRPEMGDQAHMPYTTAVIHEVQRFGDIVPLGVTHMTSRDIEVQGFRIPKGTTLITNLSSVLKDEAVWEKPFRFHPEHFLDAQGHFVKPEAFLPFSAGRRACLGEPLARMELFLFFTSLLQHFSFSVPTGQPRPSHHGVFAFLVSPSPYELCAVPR"}, "[3]": {"molecular_target": "Cytochrome P450 3A4 (Homo sapiens, UniProt P08684)", "sequence (P08684 whole entry)": "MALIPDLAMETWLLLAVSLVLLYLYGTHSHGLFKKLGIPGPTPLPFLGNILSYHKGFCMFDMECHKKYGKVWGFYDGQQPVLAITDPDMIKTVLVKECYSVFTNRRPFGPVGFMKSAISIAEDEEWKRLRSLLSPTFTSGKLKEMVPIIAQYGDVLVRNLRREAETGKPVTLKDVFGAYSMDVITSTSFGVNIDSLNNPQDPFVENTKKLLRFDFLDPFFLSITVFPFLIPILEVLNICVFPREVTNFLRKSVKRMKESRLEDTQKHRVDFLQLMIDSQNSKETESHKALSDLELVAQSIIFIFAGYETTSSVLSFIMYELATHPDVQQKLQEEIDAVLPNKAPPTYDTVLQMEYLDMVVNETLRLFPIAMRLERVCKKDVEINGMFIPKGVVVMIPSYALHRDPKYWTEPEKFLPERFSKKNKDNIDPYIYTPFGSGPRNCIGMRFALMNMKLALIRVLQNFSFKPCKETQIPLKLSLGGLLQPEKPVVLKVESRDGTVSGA"}, "[4]": {"molecular_target": "T2, Protein skinhead-1 (Caenorhabditis elegans, UniProt P34707)", "T2 sequence (P34707 whole entry)": "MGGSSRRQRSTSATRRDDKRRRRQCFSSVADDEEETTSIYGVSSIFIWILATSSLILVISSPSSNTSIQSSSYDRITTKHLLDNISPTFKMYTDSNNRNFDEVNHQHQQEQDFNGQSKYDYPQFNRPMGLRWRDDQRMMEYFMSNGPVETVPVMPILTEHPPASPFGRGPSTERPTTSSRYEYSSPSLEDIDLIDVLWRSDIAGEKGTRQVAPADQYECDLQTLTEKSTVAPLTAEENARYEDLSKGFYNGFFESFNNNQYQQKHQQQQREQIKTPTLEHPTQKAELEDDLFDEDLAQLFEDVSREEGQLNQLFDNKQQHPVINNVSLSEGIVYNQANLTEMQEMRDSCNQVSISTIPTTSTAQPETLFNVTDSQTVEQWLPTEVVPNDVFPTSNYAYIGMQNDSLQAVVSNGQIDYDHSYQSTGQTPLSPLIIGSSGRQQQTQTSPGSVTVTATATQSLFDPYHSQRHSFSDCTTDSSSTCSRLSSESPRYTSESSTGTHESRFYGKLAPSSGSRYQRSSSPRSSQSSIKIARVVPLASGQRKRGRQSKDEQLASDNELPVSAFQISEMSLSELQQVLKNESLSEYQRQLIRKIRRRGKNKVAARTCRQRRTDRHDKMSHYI", "assay_type": "functional"}, "[5]": {"molecular_target": "T3, fMet-Leu-Phe receptor (Homo sapiens, UniProt P21462)", "T3 sequence (P21462 whole entry)": "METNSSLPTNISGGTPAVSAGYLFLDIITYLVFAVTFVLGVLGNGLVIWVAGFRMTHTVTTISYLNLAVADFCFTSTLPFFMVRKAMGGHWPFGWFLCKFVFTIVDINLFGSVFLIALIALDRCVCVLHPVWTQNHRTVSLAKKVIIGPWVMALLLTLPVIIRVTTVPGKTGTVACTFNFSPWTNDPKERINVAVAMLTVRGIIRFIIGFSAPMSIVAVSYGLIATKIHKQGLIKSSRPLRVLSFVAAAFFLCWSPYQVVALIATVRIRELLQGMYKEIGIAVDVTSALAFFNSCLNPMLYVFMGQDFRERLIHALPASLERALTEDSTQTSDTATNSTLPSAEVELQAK", "assay": "formyl peptide receptor binders – dose response (AID 519)", "assay_type": "functional"}, "[6]": {"molecular_target": "Cytochrome P450 2C19 (Homo sapiens, UniProt P33261)", "sequence (P33261 whole entry)": "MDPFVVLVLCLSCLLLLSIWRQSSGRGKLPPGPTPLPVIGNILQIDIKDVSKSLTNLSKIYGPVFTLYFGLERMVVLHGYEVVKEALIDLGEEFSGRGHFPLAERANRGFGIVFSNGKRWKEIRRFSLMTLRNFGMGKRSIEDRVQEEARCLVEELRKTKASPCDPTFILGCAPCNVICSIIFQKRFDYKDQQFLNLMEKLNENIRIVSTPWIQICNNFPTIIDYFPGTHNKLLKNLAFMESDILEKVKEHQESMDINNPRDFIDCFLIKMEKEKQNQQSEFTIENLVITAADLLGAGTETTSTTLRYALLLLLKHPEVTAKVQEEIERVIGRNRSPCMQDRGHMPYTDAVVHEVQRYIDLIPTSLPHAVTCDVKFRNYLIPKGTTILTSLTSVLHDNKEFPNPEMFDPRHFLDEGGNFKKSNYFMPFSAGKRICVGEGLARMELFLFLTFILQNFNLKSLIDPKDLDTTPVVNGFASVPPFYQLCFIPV", "assay": "Cytochrome panel assay with activity outcomes. Panel member name: p450-cyp2c19 Compounds with AC50 equal or less than 10 uM are considered active", "assay_type": "functional", "details": "read-out: AC50"}, "[7]": {"molecular_target": "T4, DNA repair and recombination protein RAD54-like (Homo sapiens, UniProt Q92698)", "T4 sequence (Q92698 whole entry)": "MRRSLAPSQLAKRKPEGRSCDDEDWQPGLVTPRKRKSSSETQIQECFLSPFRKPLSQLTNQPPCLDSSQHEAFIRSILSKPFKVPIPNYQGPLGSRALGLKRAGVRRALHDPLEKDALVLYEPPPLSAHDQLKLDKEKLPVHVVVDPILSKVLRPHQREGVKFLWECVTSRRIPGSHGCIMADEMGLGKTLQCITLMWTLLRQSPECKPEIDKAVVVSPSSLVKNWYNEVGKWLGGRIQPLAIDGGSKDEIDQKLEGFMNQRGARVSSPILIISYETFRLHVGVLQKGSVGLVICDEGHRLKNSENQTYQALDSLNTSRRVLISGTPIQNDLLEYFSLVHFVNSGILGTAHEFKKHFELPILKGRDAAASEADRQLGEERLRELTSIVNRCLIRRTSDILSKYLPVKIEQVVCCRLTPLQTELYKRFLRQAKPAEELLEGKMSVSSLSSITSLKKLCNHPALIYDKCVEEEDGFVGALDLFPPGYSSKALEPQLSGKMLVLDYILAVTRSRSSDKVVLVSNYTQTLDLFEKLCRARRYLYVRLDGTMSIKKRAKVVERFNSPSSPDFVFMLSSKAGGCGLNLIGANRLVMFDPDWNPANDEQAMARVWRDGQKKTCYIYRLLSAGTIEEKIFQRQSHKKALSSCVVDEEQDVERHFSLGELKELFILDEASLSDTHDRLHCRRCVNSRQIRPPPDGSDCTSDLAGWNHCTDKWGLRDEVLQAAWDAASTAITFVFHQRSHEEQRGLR", "assay": "RAD54 Holliday junction migration blockers – biochemical, fluorescence, cherry-picked samples, dose series, confirmation (AID 651657)", "assay_type": "functional"}, "[8]": {"molecular_target": "T5, Cytochrome P450 1A2 (Homo sapiens, UniProt P05177)", "T5 sequence (P05177 whole entry)": "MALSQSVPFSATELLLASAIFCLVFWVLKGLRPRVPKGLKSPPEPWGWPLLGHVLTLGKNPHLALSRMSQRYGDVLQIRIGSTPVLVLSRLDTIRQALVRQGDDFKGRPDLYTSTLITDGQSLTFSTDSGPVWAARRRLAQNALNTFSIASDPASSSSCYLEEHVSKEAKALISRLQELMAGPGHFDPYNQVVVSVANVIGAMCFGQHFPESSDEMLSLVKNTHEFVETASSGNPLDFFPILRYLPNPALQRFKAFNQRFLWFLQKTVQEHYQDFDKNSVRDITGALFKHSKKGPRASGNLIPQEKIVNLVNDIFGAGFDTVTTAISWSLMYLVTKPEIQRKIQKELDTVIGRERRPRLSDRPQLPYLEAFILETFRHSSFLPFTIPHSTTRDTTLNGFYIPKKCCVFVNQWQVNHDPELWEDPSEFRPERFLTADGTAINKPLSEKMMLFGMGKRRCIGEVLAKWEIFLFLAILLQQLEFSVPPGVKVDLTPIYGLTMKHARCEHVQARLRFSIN"}, "[9]": {"molecular_target": "T6, Aminopeptidase N (Plasmodium falciparum FcB1/Columbia, UniProt O96935)", "T6 sequence (O96935 whole entry)": "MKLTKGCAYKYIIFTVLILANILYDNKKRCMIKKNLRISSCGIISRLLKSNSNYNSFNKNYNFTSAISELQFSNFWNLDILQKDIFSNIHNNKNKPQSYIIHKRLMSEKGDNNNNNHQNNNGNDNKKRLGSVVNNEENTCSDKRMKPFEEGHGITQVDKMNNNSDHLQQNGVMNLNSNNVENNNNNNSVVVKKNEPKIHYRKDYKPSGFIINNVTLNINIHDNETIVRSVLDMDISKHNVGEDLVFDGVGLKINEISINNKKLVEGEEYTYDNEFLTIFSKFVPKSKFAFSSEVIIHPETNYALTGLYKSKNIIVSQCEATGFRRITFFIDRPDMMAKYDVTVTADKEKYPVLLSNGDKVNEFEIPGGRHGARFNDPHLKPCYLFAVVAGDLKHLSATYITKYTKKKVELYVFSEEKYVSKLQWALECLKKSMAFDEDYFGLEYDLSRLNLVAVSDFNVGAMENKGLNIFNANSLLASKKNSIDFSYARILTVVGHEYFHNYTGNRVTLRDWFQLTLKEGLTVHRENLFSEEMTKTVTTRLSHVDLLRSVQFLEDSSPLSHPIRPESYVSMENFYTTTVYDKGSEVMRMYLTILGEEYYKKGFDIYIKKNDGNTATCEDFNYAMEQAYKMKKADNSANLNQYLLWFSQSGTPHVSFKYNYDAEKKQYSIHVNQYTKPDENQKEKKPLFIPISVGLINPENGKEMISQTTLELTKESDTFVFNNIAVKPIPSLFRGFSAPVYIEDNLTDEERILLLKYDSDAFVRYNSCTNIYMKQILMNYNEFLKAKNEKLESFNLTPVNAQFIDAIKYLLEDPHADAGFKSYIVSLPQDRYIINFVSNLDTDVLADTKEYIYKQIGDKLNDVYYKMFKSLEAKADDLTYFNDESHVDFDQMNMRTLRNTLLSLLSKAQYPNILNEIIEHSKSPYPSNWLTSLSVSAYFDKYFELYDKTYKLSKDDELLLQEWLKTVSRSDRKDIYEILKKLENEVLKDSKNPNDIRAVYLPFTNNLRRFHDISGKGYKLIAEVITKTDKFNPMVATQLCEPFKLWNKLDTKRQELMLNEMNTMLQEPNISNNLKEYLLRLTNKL", "assay": "malaria alanyl aminopeptidase activity blockers – biochemical, fluorogenic H-Leu-NHMec substrate, 1536-well (AID 1445)", "set-up": "species or system Plasmodium falciparum 3D7, 3D7"}}, "note": "Several values for one entry are separate records, joined by “and”; a condition that tells them apart may be missing. Identical values can stand only once. Activity calls are given as the source filed them."}
{"smiles": "CNCCC1Sc2ccccc2Oc2ccccc21", "note": "(stereo not given)", "values": [{"measurement": "AC50", "setting": "[1]", "value": "> 20 µM (inactive)"}]}
{"smiles": "Clc1ccccc1-c1nc(-c2ccncc2)no1", "note": "[PIFEXOLE]", "values": [{"measurement": "AC50", "setting": "[2]", "value": "3.16 µM (inconclusive)"}, {"measurement": "AC50", "setting": "[3]", "value": "2 µM (inconclusive)"}, {"measurement": "IC50", "setting": "[4]", "value": "11.2 µM (active) and 18.8 µM (active)"}]}
{"smiles": "CCOC(=O)CCn1nc(-c2ccc(Cl)cc2)cc1N", "values": [{"measurement": "Ki", "setting": "[5]", "value": "> 66.7 µM (inactive)"}]}
{"smiles": "CCc1nn2c(=O)cc(CSc3nc4sc5c(c4c(=O)n3C)CCCC5)nc2s1", "values": [{"measurement": "Ki", "setting": "[5]", "value": "> 66.7 µM (inactive)"}]}
{"smiles": "Clc1ccc2oc(SCc3cccnc3)nc2c1", "values": [{"measurement": "IC50", "setting": "[4]", "value": "33.5 µM (active)"}]}
{"smiles": "CCOc1cc(C(=O)NCc2nnc(SCC(=O)OC)n2C)cc(OCC)c1OCC", "values": [{"measurement": "Ki", "setting": "[5]", "value": "> 66.7 µM (inactive)"}]}
{"smiles": "CCNCCC(=O)N1c2ccccc2Sc2ccc(C(F)(F)F)cc21", "values": [{"measurement": "AC50", "setting": "[1]", "value": "> 20 µM (inactive)"}]}
{"smiles": "CCCN(CCC)CCCNC(=O)c1cc2cc3ccc(OC)cc3nc2o1", "values": [{"measurement": "AC50", "setting": "[6]", "value": "20 µM (inconclusive)"}, {"measurement": "AC50", "setting": "[7]", "value": "31.6 µM (active)"}, {"measurement": "AC50", "setting": "[8]", "value": "20 µM (inconclusive)"}, {"measurement": "IC50", "setting": "[9]", "value": "45.9 µM (active)"}, {"measurement": "AC50", "setting": "[3]", "value": "15.8 µM (inconclusive)"}]}
{"smiles": "O=C(Nc1ccc2nc(-c3ccccc3)oc2c1)c1ccco1", "values": [{"measurement": "IC50", "setting": "[4]", "value": "> 100 µM (inactive)"}]}
{"smiles": "COC(=O)c1ccc(-c2ccc(Cl)cc2)nc1C", "values": [{"measurement": "IC50", "setting": "[4]", "value": "82.5 µM (inactive)"}]}
{"smiles": "CCSc1nnc(NC(=O)CSc2nnc(Cc3cccn3C)n2CCc2ccccc2)s1", "values": [{"measurement": "Ki", "setting": "[5]", "value": "> 66.7 µM (inactive)"}]}
{"smiles": "O=C(C1=C(O)C(=O)N(CC2CCCO2)C1c1cccnc1)c1ccco1", "note": "(stereo not given)", "values": [{"measurement": "Ki", "setting": "[5]", "value": "54.8 µM (inactive)"}]}
{"smiles": "Cc1nn(C(=O)CCC(=O)NCc2cccc(F)c2)c2ccccc12", "values": [{"measurement": "IC50", "setting": "[4]", "value": "> 100 µM (inactive)"}]}
{"smiles": "O=C(COc1ccccc1)N/N=C/c1sc(=O)n(Cc2cccc(C(=O)O)c2)c1Cl", "values": [{"measurement": "AC50", "setting": "[1]", "value": "> 20 µM (inactive)"}]}
